# Literature values as cited in PubChem BioAssay AID1259409 (Chemical Carcinogenesis Research Information System (CCRIS), 2018).
# Test system: rodent chemically induced tumor inhibition, incidence and multiplicity
# Test: CCRIS tumor inhibitor studies
smiles,measurement,setting,value
Cc1ccc(O)c(O)c1,"tumour outcome (control, treated, inhibition, significance)","Carcinogen: N-NITROSOBIS(2-HYDROXYPROPYL)AMINE, 53609-64-6, Dose [Inhibitor]: 0, 1.5% IN DIET FOR 30 WK BEGINNING POST CARCINOGEN TREATMENT (STUDY DURATION: 35 WK), Route [Inhibitor]: ORAL, Species: HAMSTER, Strain/Sex: SYRIAN/MALE, Target Tissue: Type of Lesion: PANCREAS: ADENOCARCINOMA, Dose [Carcinogen]: 500 MG/KG 1/WK FOR 5 WK, Promoter: NONE USED","8/17 (47%), 9/19 (47%), 0%, not significant"
CC(C)=CCC/C(C)=C/CC/C(C)=C/C=C/C(C)=C/C(=O)O,outcome,"Carcinogen: 3-METHYL-4-DIMETHYLAMINOAZOBENZENE [3732-90-9], Dose [Inhibitor]: 0, 10, 40, 80 MG/KG BW DAILY FOR 16 WK, Dose [Inhibitor]: 0, 10, 40, 80 MG/KG BW DAILY FOR 16 WK, Route [Inhibitor]: ORAL (GAVAGE), Species: RAT, Strain/Sex: F344/MALE (40,29)/(40,30)/(40,30)/(40,29), Target Tissue: Type of Lesion: LIVER: HEPATOCELLULAR CARCINOMA, Dose [Carcinogen]: 0.06% FOR 16 WK","(17/29) 57%; (16/30) 53%, 9%; (4/30) 13%, 77%, p<0.05; (2/29) 7%, 89%, p<0.05"
same,outcome,"Carcinogen: 3-METHYL-4-DIMETHYLAMINOAZOBENZENE [3732-90-9], Dose [Inhibitor]: 0, 10, 40, 80 MG/KG BW DAILY FOR 16 WK, Dose [Inhibitor]: 0, 10, 40, 80 MG/KG BW DAILY FOR 16 WK, Route [Inhibitor]: ORAL (GAVAGE), Species: RAT, Strain/Sex: F344/MALE (40,29)/(40,30)/(40/30)/(40,29), Target Tissue: Type of Lesion: LIVER: HEPATOCELLULAR ADENOMA, Dose [Carcinogen]: 0.06% FOR 16 WK","(29/29) 100%; (30/30) 100%, 0%; (26/30) 86.7%, 13.3%; (24/29) 82.4%, 17.6%"
Oc1ccc(/C=C/c2cc(O)cc(O)c2)cc1,outcome,"Carcinogen: Diethylnitrosamine, 55-18-5, Dose [Inhibitor]: 0, 50, 100, 300 mg/kg bw for 20 wk, Dose [Inhibitor]: 0, 50, 100, 300 mg/kg bw for 20 wk, Route [Inhibitor]: Oral (diet), Species: Rat, Strain/Sex: Sprague-Dawley/Female, Target Tissue: Type of Lesion: Liver: nodules, Dose [Carcinogen]: 200 mg/kg bw once in peanut oil after 4 wk on diet, study duration 20 wk, Promoter: Phenobarbital, 50-06-6",100%; 78%; 50% (p<0.05); 40% (p<0.05)
CCCCCCCc1c(O)cc(CC=C(C)C)c(O)c1C=O,"tumour outcome (control, treated, inhibition, significance)","Carcinogen: AZOXYMETHANE, 25843-45-2, Dose [Inhibitor]: 0, 0.02% IN DIET IN WK 1-3 OF STUDY FOLLOWED BY BASAL DIET FOR DURATION OF STUDY (STUDY DURATION: 1 YR), Route [Inhibitor]: ORAL, Species: RAT, Strain/Sex: F344/MALE, Target Tissue: Type of Lesion: LARGE INTESTINE: ADENOCARCINOMA, Dose [Carcinogen]: 15 MG/KG BW 1/WK IN WK 1 AND 2 OF STUDY, Promoter: NONE USED","13/27 (48%), 6/30 (20%), 58%, not significant"
same,"tumour outcome (control, treated, inhibition, significance)","Carcinogen: AZOXYMETHANE, 25843-45-2, Dose [Inhibitor]: 0, 0.02% IN DIET IN WK 1-3 OF STUDY FOLLOWED BY BASAL DIET FOR DURATION OF STUDY (STUDY DURATION: 1 YR), Route [Inhibitor]: ORAL, Species: RAT, Strain/Sex: F344/MALE, Target Tissue: Type of Lesion: LARGE INTESTINE: ADENOMA, Dose [Carcinogen]: 15 MG/KG BW 1/WK IN WK 1 AND 2 OF STUDY, Promoter: NONE USED","6/27 (22%), 4/30 (13%), 41%, not significant"
same,"tumour outcome (control, treated, inhibition, significance)","Carcinogen: AZOXYMETHANE, 25843-45-2, Dose [Inhibitor]: 0, 0.02% IN DIET IN WK 1-3 OF STUDY FOLLOWED BY BASAL DIET FOR DURATION OF STUDY (STUDY DURATION: 1 YR), Route [Inhibitor]: ORAL, Species: RAT, Strain/Sex: F344/MALE, Target Tissue: Type of Lesion: SMALL INTESTINE: ADENOCARCINOMA, Dose [Carcinogen]: 15 MG/KG BW 1/WK IN WK 1 AND 2 OF STUDY, Promoter: NONE USED","6/27 (22%), 5/30 (17%), 23%, not significant"
Nc1ncn[nH]1,"tumour outcome (control, treated, inhibition, significance)","Carcinogen: DIETHYLSTILBESTROL, 56-53-1, Dose [Inhibitor]: 0, 1500 PPM IN DRINKING WATER 47 D POST FIRST DOSE OF CARCINOGEN (STUDY DURATION: 6 MO), Route [Inhibitor]: ORAL, Species: RAT, Strain/Sex: WF/MALE, Target Tissue: Type of Lesion: LIVER: HEPATOCELLULAR CARCINOMA, Dose [Carcinogen]: 5 MG ONTO BACK 1/2 MO FOR 6 MO, Promoter: NONE USED","1/9 (11%), 0/11 (0%), 100%, not calculated"
same,"tumour outcome (control, treated, inhibition, significance)","Carcinogen: DIETHYLSTILBESTROL, 56-53-1, Dose [Inhibitor]: 0, 1500 PPM IN DRINKING WATER 47 D POST FIRST DOSE OF CARCINOGEN (STUDY DURATION: 6 MO), Route [Inhibitor]: ORAL, Species: RAT, Strain/Sex: WF/MALE, Target Tissue: Type of Lesion: PITUITARY: TUMOR, Dose [Carcinogen]: 5 MG ONTO BACK 1/2 MO FOR 6 MO, Promoter: NONE USED","7/9 (78%), 8/11 (73%), 6%, not significant"
N[C@@H](CSSC[C@H](N)C(=O)O)C(=O)O,"tumour outcome (control, treated, inhibition, significance)","Carcinogen: 4-DIMETHYLAMINOAZOBENZENE, 60-11-7, Dose [Inhibitor]: 0.5% OF DIET DAILY STARTING SIMULTANEOUSLY WITH CARCINOGEN TREATMENT AND CONTINUING THROUGH THE END OF THE STUDY (STUDY, Route [Inhibitor]: ORAL, Species: RAT, Strain/Sex: OSBORNE-MENDEL/MALE, Target Tissue: Type of Lesion: LIVER: HEPATOMA, ADENOCARCINOMA, Dose [Carcinogen]: 0.06% OF DIET DAILY THROUGH THE END OF THE STUDY, Promoter: NONE USED","48/80 (60%), 84/87 (97%), -62%, not calculated"
CC1=C(/C=C/C(C)=C/C=C/C(C)=C\C(=O)NCCCCO)C(C)(C)CCC1,"tumour outcome (control, treated, inhibition, significance)","Carcinogen: N-BUTYL-N-(4-HYDROXYBUTYL)NITROSAMINE, 3817-11-6, Dose [Inhibitor]: 1.5 MMOL/KG DIET DAILY FOR 133 D STARTING ONE WK AFTER THE FINAL CARCINOGEN DOSE (STUDY DURATION: 190 D), Route [Inhibitor]: ORAL, Species: MOUSE, Strain/Sex: BDF/MALE, Target Tissue: Type of Lesion: URINARY BLADDER: TRANSITIONAL CELL CARCINOMA, Dose [Carcinogen]: 7.5 MG 1/WK FOR 8 WK, Promoter: NONE USED","21/100 (21%), 17/100 (17%), 20%, not significant"
same,"tumour outcome (control, treated, inhibition, significance)","Carcinogen: N-BUTYL-N-(4-HYDROXYBUTYL)NITROSAMINE, 3817-11-6, Dose [Inhibitor]: 1.5 MMOL/KG IN DIET FOR 133 D STARTING 1 WK AFTER LAST CARCINOGEN DOSE (STUDY DURATION: 190 D), Route [Inhibitor]: ORAL, Species: MOUSE, Strain/Sex: DBF1/MALE, Target Tissue: Type of Lesion: URINARY BLADDER: TRANSITIONAL CELL CARCINOMA, Dose [Carcinogen]: 7.5 MG 1/WK FOR 8 WK, Promoter: NONE USED","21/100 (21%), 17/100 (17%), 19%, not significant"
S=C=S,"tumour outcome (control, treated, inhibition, significance)","Carcinogen: 1,2-DIMETHYLHYDRAZINE, 540-73-8, Dose [Inhibitor]: 0, 250 MG/KG BW IN CORN OIL ADMINISTERED 24 AND 2 HR PRIOR TO AND 24 HR POST EACH CARCINOGEN DOSE (STUDY DURATION: 8 MO), Route [Inhibitor]: GAVAGE, Species: RAT, Strain/Sex: BD6/MALE, Target Tissue: Type of Lesion: INTESTINE: TUMOR, Dose [Carcinogen]: 20 MG/KG BW 1/WK FOR 20 WK, Promoter: NONE USED","100%, 0%, 100%, not calculated"
Cc1c(C)c(N)c(C)c(C)c1N,outcome,"Carcinogen: 7,12-DIMETHYLBENZ[A]ANTHRACENE, 57-97-6, Dose [Inhibitor]: 0.1% IN POWDERED DIET BEGINNING 1 WK POST CARCINOGEN DOSE FOR 51 WK (STUDY DURATION: 52 WK), Route [Inhibitor]: ORAL, Species: RAT, Strain/Sex: SPRAGUE-DAWLEY/FEMALE, Target Tissue: Type of Lesion: EAR DUCT: BENIGN TUMOR, Dose [Carcinogen]: 2.5 MG/100 G BW IN 0.5 ML SESAME OIL ONCE, Promoter: NONE USED","7/19 (37%), 5/17 (29%), 20, not calculated"
same,"tumour outcome (control, treated, inhibition, significance)","Carcinogen: 7,12-DIMETHYLBENZ[A]ANTHRACENE, 57-97-6, Dose [Inhibitor]: 0.1% IN POWDERED DIET BEGINNING 1 WK POST CARCINOGEN DOSE FOR 51 WK (STUDY DURATION: 52 WK), Route [Inhibitor]: ORAL, Species: RAT, Strain/Sex: SPRAGUE-DAWLEY/FEMALE, Target Tissue: Type of Lesion: MAMMARY GLAND: CARCINOMA, Dose [Carcinogen]: 2.5 MG/100 G BW IN 0.5 ML SESAME OIL ONCE, Promoter: NONE USED","6/19 (32%), 6/17 (35%), -12%, not calculated"
same,"tumour outcome (control, treated, inhibition, significance)","Carcinogen: 7,12-DIMETHYLBENZ[A]ANTHRACENE, 57-97-6, Dose [Inhibitor]: 0.1% IN POWDERED DIET BEGINNING 1 WK POST CARCINOGEN DOSE FOR 51 WK (STUDY DURATION: 52 WK), Route [Inhibitor]: ORAL, Species: RAT, Strain/Sex: SPRAGUE-DAWLEY/FEMALE, Target Tissue: Type of Lesion: MAMMARY GLAND: FIBROADENOMA, Dose [Carcinogen]: 2.5 MG/100 G BW IN 0.5 ML SESAME OIL ONCE, Promoter: NONE USED","15/19 (79%), 4/17 (24%), 71%, p<0.01"
